Laboratory results taken from patent US20160346225A1, “METHOD OF PREPARING INGESTIBLE MULTI-SHEET UNIT HAVING PREDETERMINED FUNCTIONS AND COMBINATIONS” (Purdue Research Foundation, priority 2011, published 2016).

Tests used:
[1] = in the dissolution medium; cited from earlier work
[2] = dissolution of griseofulvin from particle-containing polymer films; format: physicochemical; conditions: for dissolution profile as a function of film thickness: FIG. 5D
From the text: A 10 micron film can be configured with the film is a single layer of particles that are held together by the polymer sheet, where the particles may or may not be larger in diameter than the film thickness. In one example, a films can be on the order of 100 microns. However, the film can be as thin as roughly the size of the largest particles.

COC1=CC(=O)C[C@@H](C)[C@]12Oc1c(Cl)c(OC)cc(OC)c1C2=O [griseofulvin]
solubility [1]: poorly-soluble
dissolution of drug from immobilized particles at high drug load ([2]; about 72% (w/w) drug load in the film, FIG. 7): enhanced dissolution of drug from the immobilized particles is still observed
drug release rate from film matrix ([2]; film matrix (HPMC or alginate) vs same type of particles (API) free from polymer, same area of exposure, FIG. 6): accelerated drug release
dissolution profile as a function of film thickness ([2]; film thickness increased from 10 microns to 20 microns): initially increase the dissolution profile
dissolution profile as a function of film thickness ([2]; film thickness increased up to 70 microns): significantly decreases the dissolution profile
drug release rate as a function of drug load in the film ([2]; range of drug loading percentages, FIG. 7): increases with drug load
